Tests used:
[1] = tested on: S. pneumoniae D39V; assay: fitness (endpoint OD595 vs no drug) (fraction); higher = more growth
How it was run: (§1)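 Plates with 384 wells were inoculated at OD595 0.01 using 30 µl of TSB, LB Lennox or CY, or 55 µl for S. pneumoniae. Incubation was at 37 °C, with OD595 measured every 30 min for 14 h. Fitness is the stationary-phase transition optical density over the robust mean of no-drug control wells, after first-reading background subtraction; it is capped at 1.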

[2] = tested on: B. subtilis 168; assay: as above
How it was run: as §1

CN(C)[C@@H]1C(O)=C(C(N)=O)C(=O)[C@@]2(O)C(O)=C3C(=O)c4c(O)ccc(Cl)c4[C@@](C)(O)[C@H]3C[C@@H]12 [Chlortetracycline] + CO[C@H]1/C=C/O[C@@]2(C)Oc3c(C)c(O)c4c(O)c(c(/C=N/N5CCN(C)CC5)c(O)c4c3C2=O)NC(=O)/C(C)=C\C=C\[C@H](C)[C@H](O)[C@@H](C)[C@@H](O)[C@@H](C)[C@H](OC(C)=O)[C@@H]1C [Rifampicin]
fitness, [1], one replicate
Conditions | first compound 0.012 µg/mL | first compound 0.024 µg/mL | first compound 0.048 µg/mL
partner 0.025 µg/mL | 0.844 | 0.793 | 0.642
partner 0.2 µg/mL | 0 | 0 | 0

fitness, [1]
Conditions | first compound 0.012 µg/mL | first compound 0.024 µg/mL | first compound 0.048 µg/mL | first compound 0.375 µg/mL | first compound 0.75 µg/mL | first compound 1.5 µg/mL
partner 0.025 µg/mL | – | – | – | 0.0932 | 0.0627 | 0.0877
partner 0.05 µg/mL | 0.729 | 0.687 | 0.46 | 0.077 | 0.103 | 0.113
partner 0.1 µg/mL | 0.472 | 0.429 | 0.272 | 0.102 | 0.102 | 0.14

CC(=O)Oc1ccccc1C(=O)O [Acetylsalicylic acid] + C/C(=C\C(=O)OCCCCCCCCC(=O)O)C[C@@H]1OC[C@H](C[C@@H]2O[C@H]2[C@@H](C)[C@H](C)O)[C@@H](O)[C@H]1O [Pseudomonic acid]
fitness, [1]
Conditions | first compound 250 µg/mL | first compound 500 µg/mL | first compound 1000 µg/mL
partner 0.03 µg/mL | 0.933 | 0.9 | 0.825
partner 0.06 µg/mL | 0.822 | 0.723 | –
partner 0.12 µg/mL | 0.542 | 0.488 | 0.383

CN(C)[C@@H]1C(O)=C(C(N)=O)C(=O)[C@@]2(O)C(O)=C3C(=O)c4c(O)ccc(Cl)c4[C@@](C)(O)[C@H]3C[C@@H]12 [Chlortetracycline] + Clc1ccc(COC(Cn2ccnc2)c2ccc(Cl)cc2Cl)c(Cl)c1 [Miconazole]
fitness, [1]
Conditions | first compound 0.012 µg/mL | first compound 0.024 µg/mL | first compound 0.048 µg/mL | first compound 0.375 µg/mL | first compound 0.75 µg/mL | first compound 1.5 µg/mL
partner 1.073 µg/mL | 0.995 | 0.926 | 0.907 | – | – | –
partner 1.25 µg/mL | – | – | – | 0.0819 | 0.0494 | 0.0765
partner 2.145 µg/mL | 0.971 | 0.935 | 0.879 | – | – | –
partner 2.5 µg/mL | – | – | – | 0.104 | 0.0646 | 0.0895
partner 4.29 µg/mL | 0.913 | 0.883 | 0.793 | – | – | –
partner 5 µg/mL | – | – | – | 0.0525 | 0.0422 | 0.0647

CC(=O)Oc1ccccc1C(=O)O [Acetylsalicylic acid] + O=C(O)[C@H]1/C(=C/CO)O[C@@H]2CC(=O)N21 [Clavulanic acid]
fitness, [1]
Conditions | first compound 250 µg/mL | first compound 500 µg/mL | first compound 1000 µg/mL
partner 0.5 µg/mL | 0.954 | 0.967 | 0.696
partner 1 µg/mL | 0.902 | 0.902 | 0.696
partner 2 µg/mL | 0.884 | 0.819 | 0.596

CN(C)[C@@H]1C(O)=C(C(N)=O)C(=O)[C@@]2(O)C(O)=C3C(=O)c4c(O)ccc(Cl)c4[C@@](C)(O)[C@H]3C[C@@H]12 [Chlortetracycline] + O=C1CN(/N=C/c2ccc([N+](=O)[O-])o2)C(=O)N1 [Nitrofurantoin]
fitness, [1]
Conditions | first compound 0.012 µg/mL | first compound 0.024 µg/mL | first compound 0.048 µg/mL | first compound 0.375 µg/mL | first compound 0.75 µg/mL | first compound 1.5 µg/mL
partner 1.285 µg/mL | 0.958 | 0.896 | 0.842 | – | – | –
partner 2 µg/mL | – | – | – | 0.034 | 0.0485 | 0.0311
partner 2.57 µg/mL | 0.96 | 0.951 | 0.836 | – | – | –
partner 4 µg/mL | – | – | – | 0.0275 | 0.0381 | 0.0293
partner 8 µg/mL | – | – | – | 0.0328 | 0.0386 | 0.0233

[1], partner 5.14 µg/mL, one replicate
Conditions | fitness
first compound 0.012 µg/mL | 0.862
first compound 0.024 µg/mL | 0.898
first compound 0.048 µg/mL | 0.762

CN(C)[C@@H]1C(O)=C(C(N)=O)C(=O)[C@@]2(O)C(O)=C3C(=O)c4c(O)ccc(Cl)c4[C@@](C)(O)[C@H]3C[C@@H]12 [Chlortetracycline] + CO[C@@H]1[C@@H](OC(N)=O)[C@@H](O)[C@H](Oc2ccc3c(O)c(NC(=O)c4ccc(O)c(CC=C(C)C)c4)c(=O)oc3c2C)OC1(C)C [Novobiocin]
fitness, [2]
Conditions | first compound 0.0475 µg/mL | first compound 0.095 µg/mL | first compound 0.19 µg/mL
partner 0.0125 µg/mL | 0.909 | 0.765 | 0.469
partner 0.025 µg/mL | 0.623 | 0.653 | 0.336
partner 0.05 µg/mL | 0.986 | 0.844 | 0.398

fitness, [2], one replicate
Conditions | partner 0.1 µg/mL | partner 0.125 µg/mL | partner 0.2 µg/mL | partner 0.25 µg/mL | partner 0.5 µg/mL
first compound 0.0475 µg/mL | 0.948 | 0.928 | 0.934 | 0.966 | 0.648
first compound 0.095 µg/mL | 0.863 | 0.839 | 0.936 | 0.811 | 0.577
first compound 0.19 µg/mL | 0.529 | 0.548 | 0.52 | 0.537 | 0.323

— the supplement of paper PMC10627819
